Measurements from patent publication US7553848B2, “Vanilloid receptor ligands and their use in treatments” (Amgen Inc., priority 2004, dated 2009).

| Compound | melting point [°C] |
| --- | --- |
| CC(=O)Nc1nc2c(NC(=O)c3ccc4cc(Br)ccc4c3)cccc2s1 [Example 4, 6-Bromo-naphthalene-2-carboxylic acid (2-acetylamino-benzothiazol-4-yl)-amide] | 241.6 |
| CC(C)(C)c1ccc2cc(C(=O)Nc3ccc4c(c3)OCCO4)ncc2c1 [Example 11, 7-tert-Butyl-isoquinoline-3-carboxylic acid (2,3-dihydro-benzo[1,4]dioxin-6-yl)-amide] | 154 to 157 |
| CC(=O)Nc1nc2c(NC(=O)c3cc4ccc(C(F)(F)F)cc4s3)cccc2s1 | 285.4 to 285.9 |
| O=C(Nc1ccc2c(c1)OCCO2)c1cnc2cc(C(F)(F)F)ccc2c1Cl [Example 13, 4-Chloro-7-trifluoromethyl-quinoline-3-carboxylic acid (2,3-dihydro-benzo[1,4]dioxin-6-yl)-amide] | 296 |
| O=C(Nc1ccc2c(c1)OCCO2)c1ccc2cc(Br)ccc2c1 [Example 14, 6-Bromo-naphthalene-2-carboxylic acid (2,3-dihydro-benzo[1,4]dioxin-6-yl)-amide] | 222.7 |
| O=C(Nc1ccc2c(c1)OCCO2)c1cc2ncc(C(F)(F)F)cc2s1 [Example 12, 6-Trifluoromethyl-thieno[3,2-b]pyridine-2-carboxylic acid (2,3-dihydro-benzo[1,4]dioxin-6-yl)-amide] | 247 |
| CC(C)(C)c1ccc2c(c1)CN[C@H](C(=O)Nc1ccc3c(c1)OCCO3)C2.Cl | 134 |
